This note sets out measurements from patent US5506102A (priority 1993, dated 1996).

The test system of assay [1] is human vitamin D receptor. The assay is described as follows: VDR transcriptional activity on VDRE2 tk-LUC with PR-A, CV-1 cells. Format: cell-based. The following applies: absence or presence of progesterone, FIG. 7. An excerpt:
The data shown represent the mean value +/- the average deviation from the mean of triplicate determinations;
To analyze the specificity of PR-A action, we examined its ability to affect other receptor-dependent transcription systems. For this purpose, phPR-A was cotransfected with a vector expressing the vitamin D receptor (VDR) and assayed on a VDRE2 tk-LUC reporter (available from Dr. J. Wesley Pike, Ligand Pharmaceuticals, Inc.).

The subject of assay [2] is PR-B (co-expressed with PR-A). As to the kind of experiment: PR-A effect on PR-B mediated PRE2 tk-LUC transcription (co-transfection). The format is cell-based, human. The protocol:
(§1) FIGS. 4A-4B are a series of graphs showing CV-1 ([…]) or HepG2 (FIG. 4B) cells that were transiently transfected with either […] of phPR-B or phPR-A alone, or phPR-B in the presence of increasing concentrations of phPR-A, together with 5 µg/ml of the PRE2 tk-LUC reporter and 5 µg/ml of pCH110 as an internal control. HeLa cells (FIG. 4C) were transfected with either phPR-B or phPR-A together with 5 µg/ml of the pTAT2950 reporter and 5 µg/ml of pCH110 as an internal control. […] The relative luciferase activity is calculated by dividing the normalized luciferase value at a given point by that obtained in the absence of transfected receptor or ligand. The data shown represent the mean +/- average deviation from the mean of triplicate estimations;
Both reporter plasmids were digested with XhoI and HindIII restriction enzymes and a 6.7 Kb fragment from MMTV-LUC and a 0.12 Kb fragment from PRE2 tk-CAT were isolated and ligated, resulting in a plasmid called PRE2 tk-LUC.
(§2) Cells were seeded in 12-well, 96-well or 10 cm tissue culture plates. […] 20 μg of DNA/ml of transfection buffer were used in each transfection reaction. […]

Assay [3] addresses T1, PR-B (Homo sapiens, UniProt P06401).
T1 sequence (P06401 1-933): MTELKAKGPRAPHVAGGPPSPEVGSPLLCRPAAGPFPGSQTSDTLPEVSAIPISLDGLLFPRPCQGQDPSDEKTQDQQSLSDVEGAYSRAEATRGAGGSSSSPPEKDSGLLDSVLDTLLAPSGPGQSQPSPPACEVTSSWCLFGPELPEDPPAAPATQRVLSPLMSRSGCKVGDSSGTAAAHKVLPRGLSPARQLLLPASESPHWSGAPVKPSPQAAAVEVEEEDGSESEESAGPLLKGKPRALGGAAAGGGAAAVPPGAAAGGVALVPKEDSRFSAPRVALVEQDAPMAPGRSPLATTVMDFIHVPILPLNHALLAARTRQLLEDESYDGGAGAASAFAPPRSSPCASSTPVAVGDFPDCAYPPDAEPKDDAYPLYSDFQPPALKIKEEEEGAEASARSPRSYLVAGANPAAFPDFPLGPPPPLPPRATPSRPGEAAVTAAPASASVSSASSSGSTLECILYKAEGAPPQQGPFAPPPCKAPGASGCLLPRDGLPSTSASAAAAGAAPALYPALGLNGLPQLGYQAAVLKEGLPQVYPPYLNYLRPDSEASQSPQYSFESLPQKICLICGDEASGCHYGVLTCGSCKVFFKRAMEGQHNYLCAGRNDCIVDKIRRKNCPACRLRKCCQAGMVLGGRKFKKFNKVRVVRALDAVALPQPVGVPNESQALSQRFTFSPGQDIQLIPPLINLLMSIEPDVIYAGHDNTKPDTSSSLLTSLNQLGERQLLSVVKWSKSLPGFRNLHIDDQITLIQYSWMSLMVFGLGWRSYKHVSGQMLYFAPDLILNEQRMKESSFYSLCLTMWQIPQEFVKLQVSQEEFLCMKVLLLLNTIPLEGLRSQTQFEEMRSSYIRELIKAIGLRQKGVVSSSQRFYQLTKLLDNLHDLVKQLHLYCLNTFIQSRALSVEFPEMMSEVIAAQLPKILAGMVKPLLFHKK
The assay is described as follows: PR-B regulation of TAT promoter. Format: cell-based. The arrangement: expressed in transfected cells; host or cells: CV-1, HepG2 (PRE2 tk-LUC); HeLa, also HepG2 and CV-1 (TAT promoter). The note with it: data not shown. As to the method:
as §1
The 2.9 Kb fragment resulting from the digestion of the pTAT-CAT plasmid, and the 6.7 Kb fragment, containing the luciferase gene and the backbone resulting from MMTV-LUC digestion products, were ligated to create the plasmid TAT2950-LUC.
as §2

Turning to `CC(=O)[C@H]1CC[C@H]2[C@@H]3CCC4=CC(=O)CC[C@]4(C)[C@H]3CC[C@]12C` [progesterone], in assay [1], the “effect of PR-A co-expression on hormone-dependent transactivation by VDR” value is “not substantially affected”. Moreover, the “PR-A effect on PR-B activity on PRE2 tk-LUC” value in assay [2] (CV-1, 10^-7 M progesterone, FIG. 4A) was “repression of PR-B activity”. The “PR-A effect on PR-B transcriptional activity on PRE2 tk-LUC” value in assay [2] (HepG2, 10^-7 M progesterone, FIG. 4B) is on record as “no effect on PR-B transcriptional activity”. In addition, the TAT promoter response entry in assay [3] (CV-1, PR-B) was “unresponsive to either receptor subtype”. Further, in assay [3] (HepG2, phPR-B), the “TAT promoter response to progesterone” value is reported as “responded to progesterone”.
